How the values were obtained:
P. falciparum HDAC1 = P. falciparum HDAC1 (Plasmodium falciparum, UniProt Q7K6A1); test: PfHDAC1 HDAC glo I/II; type: biochemical; conditions: 50nM
PfCDPK4 = conditions: ref [25]; cited from earlier work
dUTPase = molecular target: T1, dUTPase (Plasmodium falciparum, UniProt Q8II92); test: Bioaffinity Mass Spectrometry Screening, dUTPase; type: binding; conditions: compound:protein ~5:1
T1 construct: […]; made in house
Experimental: (§1) Bioaffinity Mass Spectrometry Screening Method
(§2) Recombinant proteins were prepared by the Van Voorhis group according to the same protocol as in [25]. Proteins were buffer-exchanged into a suitable volatile buffer (ammonium acetate or ammonium bicarbonate) for native ESI-MS. Depending on the protein, the buffer and its concentration is chosen to obtain the highest sensitivity in the mass spectrometer. We have chosen ammonium acetate buffer (10mM, pH 7) for these two proteins, dUTPase and 6-Phosphogluconolactonase.
(§3) High-resolution Fourier transform mass spectrometry (FTMS) can identify the molecular weight of the bound ligand. The difference between the mass-to-charge ratio (Δm/z) for the unbound protein and the [protein-bound ligand] complex ions was multiplied by the charge state (z) to directly afford the molecular weight of the bound ligand, using the following equation.
(§4) The BMSS assay was performed on 400 Malaria Box compounds against 25 Plasmodium falciparum proteins, which are critical in malaria cell growth and invasion. Pools of eight Malaria Box compounds (each compound 1 µL, 1 mM in methanol) were incubated with a P. falciparum protein one hour at room temperature. When a non-covalent complex was found, the molecular weight of the binding compound was deducted from the spectrum. On the basis of this information, a binding confirmation on the selected compound was performed. […]

[1] = tested on: P. falciparum Dd2 apicoplast; conditions: ref [61]; cited from earlier work
[2] = tested on: P. falciparum 3D7 trophozoites; test: Metabolomic fingerprint profiling LC-MS; type: cell-based, Plasmodium falciparum; parameters: UDP-D-glucose / ADP-D-glucose: unit not given here; conditions: for Acetyllysine / N-acetyl-L-ornithine / N-carbamoyl-L-aspartate / NADPH / dAMP / dCMP / dTDP / dTMP / dTTP / dihydroorotate / orotate / DLH / DLS/SDL/SID / PD / PEE / PVNF / 3-phosphoglycerate / ADP-D-glucose / ATP / CDP / D-sedoheptulose-1/7-phosphate / FAD / GMP / NAD+ / NADP+ / Octoluse Bisphosphate / Pyroglutamic acid / UDP-D-glucose / UDP-D-glucuronate / UDP-N-acetyl-glucosamine / UDP / UMP / UTP / a-ketoglutarate / citrate/isocitrate / cytidine / dATP / dGMP/AMP / fumarate / glucose-1/6-phosphate / glycerate / guanine / guanosine / hypoxanthine / indole / inosine / nicotinate / ornithine / phosphoenolpyruvate / pyruvate / ribose-phosphate / sarcosine/alanine / sn-glycerol-3-phosphate / succinate/methylmalonic acid / uridine / xanthosine: S2 Table Metabolomics; for Acetyllysine: metabolite Acetyllysine; for N-acetyl-L-ornithine: metabolite N-acetyl-L-ornithine; for N-carbamoyl-L-aspartate: metabolite N-carbamoyl-L-aspartate; for NADPH: metabolite NADPH; for dAMP: metabolite dAMP; for dCMP: metabolite dCMP; for dTDP: metabolite dTDP; for dTMP: metabolite dTMP; for dTTP: metabolite dTTP; for dihydroorotate: metabolite dihydroorotate; for orotate: metabolite orotate; for DLH: peptide DLH; for DLS/SDL/SID: peptide DLS/SDL/SID; for PD: peptide PD; for PEE: peptide PEE; for PVNF: peptide PVNF; for 3-phosphoglycerate: metabolite 3-phosphoglycerate; for ADP-D-glucose: metabolite ADP-D-glucose; for ATP: metabolite ATP; for CDP: metabolite CDP; for CDP / D-sedoheptulose-1/7-phosphate / GMP / Octoluse Bisphosphate / UDP / UMP / UTP / citrate/isocitrate / dGMP/AMP / fumarate / glucose-1/6-phosphate / glycerate / guanine / guanosine / inosine / pyruvate / sarcosine/alanine / succinate/methylmalonic acid / uridine / xanthosine: change in metabolite level after compound treatment; for D-sedoheptulose-1/7-phosphate: metabolite D-sedoheptulose-1/7-phosphate; for FAD: metabolite FAD; for GMP: metabolite GMP; for NAD+: metabolite NAD+; for NADP+: metabolite NADP+; for Octoluse Bisphosphate: metabolite Octoluse Bisphosphate; for Pyroglutamic acid: metabolite Pyroglutamic acid; for UDP-D-glucose: metabolite UDP-D-glucose; for UDP-D-glucuronate: metabolite UDP-D-glucuronate; for UDP-N-acetyl-glucosamine: metabolite UDP-N-acetyl-glucosamine; for UDP: metabolite UDP; for UMP: metabolite UMP; for UTP: metabolite UTP; for a-ketoglutarate: metabolite a-ketoglutarate; for citrate/isocitrate: metabolite citrate/isocitrate; for cytidine: metabolite cytidine; for dATP: metabolite dATP; for dGMP/AMP: metabolite dGMP/AMP; for fumarate: metabolite fumarate; for glucose-1/6-phosphate: metabolite glucose-1/6-phosphate; for glycerate: metabolite glycerate; for guanine: metabolite guanine; for guanosine: metabolite guanosine; for hypoxanthine: metabolite hypoxanthine; for indole: metabolite indole; for inosine: metabolite inosine; for 2_3-Diphosphoglyceric acid / 4-phosphopantothenate / 6-phospho-D-gluconate / FMN / IMP / Pyrophosphate / Sedoheptoluse bisphosphate / cyclic-AMP / glutathione disulfide / lactate / myo-inositol: metabolite level change after treatment; for nicotinate: metabolite nicotinate; for ornithine: metabolite ornithine; for phosphoenolpyruvate: metabolite phosphoenolpyruvate; for pyruvate: metabolite pyruvate; for ribose-phosphate: metabolite ribose-phosphate; for sarcosine/alanine: metabolite sarcosine/alanine; for sn-glycerol-3-phosphate: metabolite sn-glycerol-3-phosphate; for succinate/methylmalonic acid: metabolite succinate/methylmalonic acid; for uridine: metabolite uridine; for xanthosine: metabolite xanthosine
P. falciparum = test: EC50 listed in S2 Table Metabolomics (used to set the concentration tested); type: cell-based; conditions: Plasmodium falciparum; EC50 used for Factor_XEC50 in metabolomics; read-out: EC50_nM
[3] = tested on: P. falciparum W2 apicoplast; conditions: ref [60]; cited from earlier work
[4] = molecular target: T2, 6-Phosphogluconolactonase (Plasmodium falciparum, UniProt Q8IKU0); test: Bioaffinity Mass Spectrometry Screening, 6-Phosphogluconolactonase; type: binding; conditions: compound:protein ~5:1
T2 construct: […]; His6 with linker ([…]) (N); made in house
Experimental: as §1, §2, §3, §4

PfEg5 = tested on: PfEg5; parameters: method as in ref [29] (a number printed in a supplementary file, which may have a reference list of its own: not looked up in the article's list); conditions: ref [29]; cited from earlier work
PvEg5 = tested on: PvEg5; parameters: method as in ref [29] (a number printed in a supplementary file, which may have a reference list of its own: not looked up in the article's list); conditions: ref [29]; cited from earlier work
[5] = tested on: S. mansoni newly transformed schistosomula (NTS); parameters: method as in ref [91] (a number printed in a supplementary file, which may have a reference list of its own: not looked up in the article's list); conditions: ref [91]; read-out: Schistosoma mansoni newly transformed schistosomula EC50 J. Keiser; cited from earlier work
S. mansoni adult worms = tested on: S. mansoni adult worms; parameters: method as in ref [91] (a number printed in a supplementary file, which may have a reference list of its own: not looked up in the article's list); conditions: ref [91]; read-out: Schistosoma mansoni adult worm EC50 J. Keiser; cited from earlier work
[6] = tested on: Schistosoma mansoni schistosomula (somules); test: S. mansoni somules phenotypic screen Caffrey; conditions: 2.5 µM, 48 h
[7] = tested on: Schistosoma mansoni adult males; test: S. mansoni adult phenotypic and motility screen Caffrey

T1 sequence (Q8II92 whole entry, added parts left off): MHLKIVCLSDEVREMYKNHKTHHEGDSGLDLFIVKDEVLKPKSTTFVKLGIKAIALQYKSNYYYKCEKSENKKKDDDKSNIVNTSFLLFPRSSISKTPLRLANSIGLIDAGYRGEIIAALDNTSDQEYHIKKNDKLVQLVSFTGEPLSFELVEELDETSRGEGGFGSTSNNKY
T2 sequence (Q8IKU0 1-327): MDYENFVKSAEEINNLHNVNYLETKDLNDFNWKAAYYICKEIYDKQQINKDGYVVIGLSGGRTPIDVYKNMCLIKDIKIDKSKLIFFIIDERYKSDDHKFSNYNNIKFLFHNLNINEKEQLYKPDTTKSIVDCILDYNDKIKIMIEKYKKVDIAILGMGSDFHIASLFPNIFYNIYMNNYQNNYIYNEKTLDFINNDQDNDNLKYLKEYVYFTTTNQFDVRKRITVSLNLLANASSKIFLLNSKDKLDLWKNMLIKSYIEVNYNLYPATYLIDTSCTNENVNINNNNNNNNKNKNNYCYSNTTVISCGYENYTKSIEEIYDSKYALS
P. falciparum HDAC1, sequence (Q7K6A1 entry or part of it): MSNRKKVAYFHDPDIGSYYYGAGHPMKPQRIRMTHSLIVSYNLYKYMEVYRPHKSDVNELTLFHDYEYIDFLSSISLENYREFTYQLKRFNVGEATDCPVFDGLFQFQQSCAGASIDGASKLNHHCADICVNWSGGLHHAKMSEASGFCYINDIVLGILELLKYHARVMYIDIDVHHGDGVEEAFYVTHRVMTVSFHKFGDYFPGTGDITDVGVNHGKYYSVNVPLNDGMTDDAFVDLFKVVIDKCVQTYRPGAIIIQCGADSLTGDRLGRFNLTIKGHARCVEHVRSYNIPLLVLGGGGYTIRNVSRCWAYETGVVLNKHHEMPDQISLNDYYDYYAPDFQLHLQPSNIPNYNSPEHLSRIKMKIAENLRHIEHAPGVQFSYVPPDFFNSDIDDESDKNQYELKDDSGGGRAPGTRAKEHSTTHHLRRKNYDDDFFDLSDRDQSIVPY

## CC(/C=C/C(=O)NO)=C\[C@@H](C)C(=O)c1ccc(N(C)C)cc1 [trichostatin A]
P. falciparum HDAC1
  PfHDAC1 % inhibition: 89.9 ± 0.5%

## O=c1nc(C=Cc2ccc(Br)cc2)oc2ccccc12 [MMV666599]
PfCDPK4
  IC50: 700 nM
dUTPase
  binding to dUTPase (confirmation): binding

## O=C(O)C1Cc2c([nH]c3ccccc23)C(c2ccc(Cl)cc2Cl)N1 (centres unmarked) [MMV008138]
[1]
  apicoplast targeting in words: targets the apicoplast
[2]
  Acetyllysine: 0.5387
  N-acetyl-L-ornithine: 0.5503
  N-carbamoyl-L-aspartate: 0.144
  NADPH: 0.4869
  dAMP: 0.6135
  dCMP: 0.1541
  dTDP: 0.7214
  dTMP: 0.483
  dTTP: 0.2857
  dihydroorotate: 0.2096
  orotate: 0.1204
  DLH: -0.1546
  DLS/SDL/SID: 0.007657
  PD: 0.2545
  PEE: 0.5615
  PVNF: -0.063
  3-phosphoglycerate: 0.3297
  ADP-D-glucose: 0.3003
  ATP: 0.2312
  CDP: 0.6827
  D-sedoheptulose-1/7-phosphate: 0.414
  FAD: 0.2533
  GMP: -0.6458
  NAD+: 0.09564
  NADP+: 0.2678
  Octoluse Bisphosphate: 0.757
  Pyroglutamic acid: -0.1569
  UDP-D-glucose: 0.2273
  UDP-D-glucuronate: 0.2472
  UDP-N-acetyl-glucosamine: 0.2573
  UDP: 0.7153
  UMP: -0.1378
  UTP: 0.4566
  a-ketoglutarate: -0.4582
  citrate/isocitrate: -0.1476
  cytidine: -0.2541
  dATP: 0.1704
  dGMP/AMP: 0.6095
  fumarate: 0.1788
  glucose-1/6-phosphate: 0.6615
  glycerate: 0.3332
  guanine: -0.07738
  guanosine: -0.4378
  hypoxanthine: -0.1251
  indole: -0.05929
  inosine: -0.03831
  2_3-Diphosphoglyceric acid: 0.5774
  4-phosphopantothenate: 0.6234
  6-phospho-D-gluconate: 0.4127
  FMN: 0.5115
  IMP: 0.3745
  Pyrophosphate: 0.4065
  Sedoheptoluse bisphosphate: 0.7391
  cyclic-AMP: 0.217
  glutathione disulfide: 0.4434
  lactate: -0.4969
  myo-inositol: 0.6581
  nicotinate: -0.1339
  ornithine: 0.07192
  phosphoenolpyruvate: 0.04449
  pyruvate: -0.3198
  ribose-phosphate: 0.3445
  sarcosine/alanine: 0.05421
  sn-glycerol-3-phosphate: -0.3078
  succinate/methylmalonic acid: 0.03332
  uridine: -0.07029
  xanthosine: -0.1854
P. falciparum
  EC50: 350 nM
[3]
  rescue by IPP supplementation in words: highest level of rescue
[4]
  binding to 6-Phosphogluconolactonase (confirmation): binding

## COc1cccc(C=Cc2nc(=O)c3ccccc3o2)c1OC [MMV666693]
PfEg5
  PfEg5 ATPase inhibition in words: selective inhibitor
PvEg5
  PvEg5 ATPase inhibition in words: selective inhibitor
[2]
  Acetyllysine: 0.1397
  N-acetyl-L-ornithine: 0.2363
  N-carbamoyl-L-aspartate: 3.172
  NADPH: 0.2825
  dAMP: -0.08701
  dCMP: 0.2474
  dTDP: -0.7354
  dTMP: -0.4318
  dTTP: -0.1932
  dihydroorotate: 3.894
  orotate: -0.9184
  DLH: -0.06293
  DLS/SDL/SID: -0.09731
  PD: 0.5949
  PEE: -0.05317
  PVNF: -0.1239
  3-phosphoglycerate: 0.2329
  ADP-D-glucose: 0.3504
  ATP: 0.6585
  CDP: -0.7718
  D-sedoheptulose-1/7-phosphate: 0.3935
  FAD: 0.6886
  GMP: 2.325
  NAD+: 0.3862
  NADP+: 0.1667
  Octoluse Bisphosphate: 0.214
  Pyroglutamic acid: -0.09945
  UDP-D-glucose: 0.3609
  UDP-D-glucuronate: 0.4012
  UDP-N-acetyl-glucosamine: 0.3198
  UDP: -0.8743
  UMP: -0.7276
  UTP: -0.635
  a-ketoglutarate: -0.04301
  citrate/isocitrate: -0.1473
  cytidine: 0.3511
  dATP: 0.7712
  dGMP/AMP: -0.2164
  fumarate: 0.7025
  glucose-1/6-phosphate: 0.5191
  glycerate: -0.06297
  guanine: 0.6599
  guanosine: 0.8246
  hypoxanthine: 0.08871
  indole: 0.0369
  inosine: 0.4625
  2_3-Diphosphoglyceric acid: 0.5942
  4-phosphopantothenate: 0.0573
  6-phospho-D-gluconate: 0.4861
  FMN: 0.3054
  IMP: 0.1618
  Pyrophosphate: 0.3262
  Sedoheptoluse bisphosphate: 0.378
  cyclic-AMP: 0.4484
  glutathione disulfide: 0.6375
  lactate: 0.2118
  myo-inositol: 0.3466
  nicotinate: 0.3154
  ornithine: 0.1755
  phosphoenolpyruvate: 0.1481
  pyruvate: -0.005171
  ribose-phosphate: 0.3602
  sarcosine/alanine: 0.4257
  sn-glycerol-3-phosphate: 0.6187
  succinate/methylmalonic acid: 0.3609
  uridine: -0.1766
  xanthosine: 0.5199
P. falciparum
  EC50: 23.8 nM

## O=C(C1CCCCC1)N1CC(=O)N2CCc3ccccc3C2C1 (centres unmarked) [Praziquantel]
[5]
  EC50: 2200 nM
S. mansoni adult worms
  EC50: 200 nM
[6]
  somule severity score: 4
[7]; 48 h, 5µM
  S. mansoni adult males 48hr motility assay: zero
[7]; 48hr at 5 µM
  S. mansoni adult males visual tox scale, 0 = none, 4=most damaged: 4
